Patent publication US20230000844A1, “BIOMARKERS FOR NANOPARTICLE COMPOSITIONS” (Abraxis BioScience, LLC, priority 2019, published 2023)

How the values were obtained:
[1] = Stable isotope tracer ultrafiltration assay (SITUA) of rapamycin drug release from ABI-009 lots; type: physicochemical; conditions: 10 minutes incubation, 4.5% human serum albumin, 29° C.
Experimental: A study was also undertaken to analyze rapamycin drug release from 12 lots of ABI-009 (Lots #1-10 and Lots 14-15) using a stable isotope tracer ultrafiltration assay (SITUA) (see Skoczen et al., Stable Isotope Method to Measure Drug Release from Nanomedicines, J. Control Release, 220(A):169-174 (2015). Drug release was examined at 10 μg/ml and 500 μg/ml of rapamycin following 10 minutes of incubation. Briefly, stable, isotope-labeled rapamycin was spiked into 4.5% human serum albumin (25% Albutein HSA diluted in 0.9% saline). MeOH-solvent rapamycin (as a control) or fresh reconstituted samples of each lot at 10 μg/ml or 500 μg/ml were added. After 10 minutes of equilibration at 29° C., a portion of the sample is taken and filtered using Vivacon®) 10 kDa MWCO centrifuge devices prewarmed to 29° C. The sample and the ultrafiltrate are analyzed by LC-MS to determine the concentrations of normal rapamycin and isotope-labelled rapamycin. The ultrafilterable fraction of isotope-labeled rapamycin represents a measurement of free unbound fraction.
The encapsulated and unencapsulated nanoparticle fractions can also be calculated.

[2] = test system: non-PEComa cancer with TSC1, TSC2 or mTOR mutation; assay: ABI-009 Expanded Access Protocol: single-agent ABI-009 in non-PEComa patients with relevant mTOR pathway mutations; type: in vivo, human; parameters: key: CR: disappearance of all target lesions; PR: at least a 30% decrease in the sum of the longest diameters (SLD) of target lesions; SD: neither sufficient shrinkage of target lesions to qualify for PR, nor sufficient increase to qualify for PD; PD: at least a 20% increase in the SLD of target lesions; conditions: Patient #4, metastatic epithelial ovarian carcinoma
Text: Seven patients were enrolled under ABI-009 Expanded Access Protocol. See Table 14 below for information about their tumor type, relevant mutation, failed prior therapy and response to ABI-009. ABI-009 was produced according to Example 7.

[3] = in vivo; cited from earlier work
[4] = test system: ABCB1/ABCG2; conditions: cited from earlier work
[5] = test system: malignant PEComa; assay: Case: malignant PEComa patient (TSC1 mutation) who failed everolimus, then treated with nab-sirolimus; type: in vivo, human
Experimental: A post-menopausal person with family history of lymphoma in their parent and breast, ovarian cancer in a paternal aunt, presented with abnormal uterine bleeding in July 2018. […] Following this, a laparoscopic hysterectomy with bilateral salpingo-oophorectomy was performed and pathology was consistent with malignant PEComa which stained positive for smooth muscle actin, HMB-45 and Melan-A (59 mitoses per 10 hpf).
The primary tumor was locally advanced, and no metastatic disease was present at the time of diagnosis, adjuvant chemotherapy was not administered, and the patient was monitored with serial scans.
Upon disease progression, the patient was started on 10 mg everolimus orally daily.
After failure of treatment with everolimus, the patient was treated with nab-sirolimus at 100 mg/m^2 on day 1 and day 8 of a 21 day cycle started in July of 2019. They also received stereotactic radiosurgery to the metastatic lesion in their brain.

[6] = test system: tumors with TSC1 or TSC2 mutations; conditions: 2/30 patients; cited from earlier work

CO[C@H]1C[C@@H]2CC[C@@H](C)[C@@](O)(O2)C(=O)C(=O)N2CCCC[C@H]2C(=O)O[C@H]([C@H](C)C[C@@H]2CC[C@@H](O)[C@H](OC)C2)CC(=O)[C@H](C)/C=C(\C)[C@@H](O)[C@@H](OC)C(=O)[C@H](C)C[C@H](C)/C=C/C=C/C=C/1C [Free rapamycin]
Avg. Release (%) ([1]; 10 μg/ml rapamycin): 97.2%
Avg. Release (%) ([1]; 500 μg/ml rapamycin): 18.3%

CC(C)n1nc(-c2ccc3oc(N)nc3c2)c2c(N)ncnc21 [MLN0128]
best response on prior MLN0128 [2]: SD

COc1ccc(COc2cc3oc(=O)c4cc(C(C)O)ccc4c3cc2OC)cc1 (centres unmarked) [Palomid 529]
brain penetration [3]: good brain penetration
affinity for ABCB1/ABCG2 [4]: lacks affinity

CO[C@H]1C[C@@H]2CC[C@@H](C)[C@@](O)(O2)C(=O)C(=O)N2CCCC[C@H]2C(=O)O[C@H]([C@H](C)C[C@@H]2CC[C@@H](OCCO)[C@H](OC)C2)CC(=O)[C@H](C)/C=C(\C)[C@@H](O)[C@@H](OC)C(=O)[C@H](C)C[C@H](C)/C=C/C=C/C=C/1C [everolimus]
CT scan result 2 months after starting everolimus ([5]; everolimus 10 mg orally daily, reduced to 5 mg): progressive disease
adverse event related to everolimus ([5]; three weeks after beginning 10 mg orally daily): hospitalized due to fever and headache
responses in patients with TSC1 or TSC2 mutations [6]: 7%
